Experimental data published in patent US20150105252A1, “SUBSTITUTED PYRAZOLES AS HERBICIDES” (E I DU PONT DE NEMOURS AND COMPANY, priority 2013, published 2015).

Legend:
windgrass = assay: Test C postemergence; type: in vivo, Apera spica-venti; details: 62 g ai/ha, scale 0 to 100
kochia = assay: Test C preemergence; type: in vivo, Kochia scoparia; details: for Plant response rating (scale of 0 to 100), Kochia: Preemergence, 250 g ai/ha; for Kochia plant response rating / Plant response rating, Kochia: preemergence; for Plant response rating, Kochia: 62 g ai/ha, scale 0 to 100, 0 = no effect, 100 = complete control
Description: Seeds of plant species selected from blackgrass (Alopecurus myosuroides), ryegrass, Italian (Italian ryegrass, Lolium multiflorum), wheat (winter wheat, Triticum aestivum), galium (catchweed bedstraw, Galium aparine), corn (Zea mays), crabgrass, large (large crabgrass, Digitaria sanguinalis), foxtail, giant (giant foxtail, Setaria faberii), johnsongrass (Sorghum halepense), lambsquarters (Chenopodium album), morningglory (Ipomoea coccinea), nutsedge, yellow (yellow nutsedge, Cyperus esculentus), pigweed (redroot pigweed, Amaranthus retroflexus), ragweed (common ragweed, Ambrosia elation), soybean (Glycine max), barnyardgrass (Echinochloa crus-galli), oilseed rape (Brassica napus), waterhemp (common waterhemp, Amaranthus rudis), oat, wild (wild oat, Avena fatua), kochia (Kochia scoparia), Surinam grass (Brachiaria decumbens), foxtail, green (green foxtail, Setaria viridis), goosegrass (Eleusine indica), bromegrass, downy (downy bromegrass, Bromus tectorum), nightshade (eastern black nightshade, Solanum ptycanthum), cocklebur (common cocklebur, Xanthium strumarium), cupgrass, woolly (woolly cupgrass, Eriochloa villosa), bermudagrass (Cynodon dactylon), sunflower, (common oilseed sunflower, Helianthus annuus), Russian thistle (Salsola kali), and velvetleaf (Abutilon theophrasti) were planted into a blend of loam soil and sand and treated preemergence with test chemicals formulated in a non-phytotoxic solvent mixture which included a surfactant.
At the same time, plants selected from these crop and weed species and also chickweed (common chickweed, Stellaria media), canarygrass (littleseed canarygrass, Phalaris minor), and deadnettle (henbit deadnettle, Lamium amplexicaule), were planted in pots containing Redi-Earth® planting medium (Scotts Company, 14111 Scottslawn Road, Marysville, Ohio 43041) comprising spaghnum peat moss, vermiculite, wetting agent and starter nutrients and treated with postemergence applications of test chemicals formulated in the same manner. Plants ranged in height from 2 to 18 cm (1- to 4-leaf stage) for postemergence treatments. Treated plants and controls were maintained in a greenhouse for 13 to 15 days, after which time all species were compared to controls and visually evaluated. Plant response ratings, summarized in Table C, are based on a scale of 0 to 100 where 0 is no effect and 100 is complete control. A dash (-) response means no test result.

Russian thistle = assay: Test D preemergence; type: in vivo, Salsola kali; details: for Plant response rating (scale 0 to 100), Russian Thistle: 16 g ai/ha, taken as preemergence; for Plant response rating, Russian Thistle: Preemergence, scale 0 to 100
Description: Seeds of plant species selected from bluegrass (annual bluegrass, Poa annua), blackgrass (Alopecurus myosuroides), canarygrass (littleseed canarygrass, Phalaris minor), chickweed (common chickweed, Stellaria media), galium (catchweed bedstraw, Galium aparine), bromegrass, downy (downy bromegrass, Bromus tectorum), field poppy (Papaver rhoeas), field violet (Viola arvensis), foxtail, green (green foxtail, Setaria viridis), deadnettle (henbit deadnettle, Lamium amplexicaule), ryegrass, Italian (Italian ryegrass, Lolium multiflorum), kochia (Kochia scoparia), lambsquarters (Chenopodium album), oilseed rape (Brassica napus), pigweed (redroot pigweed, Amaranthus retroflexus), chamomile (scentless chamomile, Matricaria inodora), speedwell (bird's-eye speedwell, Veronica persica), barley, spring (spring barley, Hordeum vulgare), wheat, spring (spring wheat, Triticum aestivum), buckwheat, wild (wild buckwheat, Polygonum convolvulus), mustard, wild (wild mustard, Sinapis arvensis), oat, wild (wild oat, Avena fatua), radish, wild (wild radish, Raphanus raphanistrum), windgrass (Apera spica-venti), Russian thistle (Salsola kali), barley, winter (winter barley, Hordeum vulgare), and wheat, winter (winter wheat, Triticum aestivum) were planted into a silt loam soil and treated preemergence with test chemicals formulated in a non-phytotoxic solvent mixture which included a surfactant.
At the same time, these species were planted in pots containing Redi-Earth® planting medium (Scotts Company, 14111 Scottslawn Road, Marysville, Ohio 43041) comprising spaghnum peat moss, vermiculite, wetting agent and starter nutrients and treated with postemergence applications of the test chemicals formulated in the same manner. Plants ranged in height from 2 to 18 cm (1- to 4-leaf stage). Treated plants and controls were maintained in a controlled growth environment for 14 to 21 days after which time all species were compared to controls and visually evaluated. Plant response ratings, summarized in Table D, are based on a scale of 0 to 100 where 0 is no effect and 100 is complete control. A dash (-) response means no test result.

common ragweed = assay: Test A postemergence; type: in vivo, Ambrosia elation
Outline: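 Seeds were sown in a loam soil–sand blend and given a directed soil spray preemergence; postemergence plants at 2–10 cm, one- to two-leaf stage, were sprayed with compound in non-phytotoxic solvent with surfactant. After about 10 days in a greenhouse, injury was visually rated against untreated controls (0 = no effect, 100 = complete control).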

[1] = 31 g ai/ha, scale 0 to 100 (0 no effect, 100 complete control), 13 to 15 days
[2] = 125 g ai/ha, scale 0 to 100, 0 is no effect, 100 is complete control
[3] = Postemergence, 500 g ai/ha, 0 to 100 scale (0 no effect, 100 complete control)
[4] = postemergence, 125 g ai/ha, about 10 days, visual rating on 0 to 100 scale (0 no effect, 100 complete control)

## CCc1cc(C(=O)NCC(F)(F)F)nn1Cc1cccc(OC(F)(F)F)c1 [Compound 20]
windgrass
  Windgrass plant response rating: 10

## CCCNC(=O)c1cc(CC)n(Cc2cccc(OC(F)(F)F)c2)n1 [Compound 27]
windgrass
  Windgrass plant response rating: 20

## CCc1cc(C(=O)NOC(C)C)nn1Cc1cccc(OC(F)(F)F)c1 [Compound 70]
windgrass
  Windgrass plant response rating: 25
kochia
  Plant response rating (scale of 0 to 100), Kochia: 98
kochia; [1]
  Kochia plant response rating: 40
kochia; 13 to 15 days
  Plant response rating, Kochia: 65
kochia; [2]
  Kochia plant response rating: 98
Russian thistle
  Plant response rating (scale 0 to 100), Russian Thistle: 0
Russian thistle; 31 g ai/ha
  Plant response rating, Russian Thistle: 0
Russian thistle; 62 g ai/ha
  Plant response rating, Russian Thistle: 90
Russian thistle; 125 g ai/ha
  Plant response rating, Russian Thistle: 90
Russian thistle; 250 g ai/ha
  Plant response rating, Russian Thistle: 100

## CCONC(=O)c1cc(CC)n(Cc2cccc(OC(F)(F)F)c2)n1 [Compound 72]
windgrass
  Windgrass plant response rating: 20
kochia
  Plant response rating (scale of 0 to 100), Kochia: 80
kochia; [1]
  Kochia plant response rating: 5
kochia; 13 to 15 days
  Plant response rating, Kochia: 45
kochia; [2]
  Kochia plant response rating: 50

## Cc1cc(C(=O)NCC(F)(F)F)nn1Cc1ccnc(C(F)(F)F)c1 [Compound 74]
windgrass
  Windgrass plant response rating: 0
kochia
  Plant response rating (scale of 0 to 100), Kochia: 98
kochia; [1]
  Kochia plant response rating: 98
kochia; 13 to 15 days
  Plant response rating, Kochia: 98
kochia; [2]
  Kochia plant response rating: 98
Russian thistle; 31 g ai/ha
  Plant response rating, Russian Thistle: 70
Russian thistle; 62 g ai/ha
  Plant response rating, Russian Thistle: 85
Russian thistle; 125 g ai/ha
  Plant response rating, Russian Thistle: 95

## CCc1cc(C(=O)NC2CC2)nn1Cc1ccnc(C(F)(F)F)c1 [Compound 76]
Russian thistle
  Plant response rating (scale 0 to 100), Russian Thistle: 50
Russian thistle; 31 g ai/ha
  Plant response rating, Russian Thistle: 65
Russian thistle; 62 g ai/ha
  Plant response rating, Russian Thistle: 70
Russian thistle; 125 g ai/ha
  Plant response rating, Russian Thistle: 80
Russian thistle; 250 g ai/ha
  Plant response rating, Russian Thistle: 95

## CCc1cc(C(=O)NOC(C)C)nn1Cc1ccnc(OC(F)F)c1 [Compound 126]
Common ragweed; [3]
  Common Ragweed plant response rating: 80
Common ragweed; [4]
  Common Ragweed plant response rating: 80

## CCCc1cc(C(=O)NCC(F)(F)F)nn1Cc1ccnc(OC(F)F)c1 [Compound 127]
Common ragweed; [3]
  Common Ragweed plant response rating: 80
Common ragweed; [4]
  Common Ragweed plant response rating: 30

## CCOc1cc(C(=O)NCC(F)(F)F)nn1Cc1ccnc(OC(F)F)c1 [Compound 128]
Common ragweed; [3]
  Common Ragweed plant response rating: 70
Common ragweed; [4]
  Common Ragweed plant response rating: 30

## CCCNC(=O)c1cc(OCC)n(Cc2ccnc(OC(F)F)c2)n1 [Compound 136]
Common ragweed; [3]
  Common Ragweed plant response rating: 100
Common ragweed; [4]
  Common Ragweed plant response rating: 30

## CCCc1cc(C(=O)NC2CC2)nn1Cc1ccnc(OC(F)F)c1 [Compound 205]
Common ragweed; [3]
  Common Ragweed plant response rating: 90
Common ragweed; [4]
  Common Ragweed plant response rating: 80
